Laboratory results as given in patent US20230257430A1, “RECOMBINANT PROTEINS FOR QUANTIFICATION OF PROTEIN LEVELS” (Genentech, Inc., priority 2020, published 2023).
Peptide text beside a SMILES is read from it. * marks the point of attachment. Cbz = O=C(OCc1ccccc1)*; CH2F = FC*

What was measured:
Type in all cases: cell-based, human
[1] = tested on: A549 parental, ARAF KO, BRAF KO, RAF1 (CRAF) KO cancer cells; test: Soft agar colony formation growth assay with pan-RAF inhibitor in RAF-depleted RASK (KRAS) mutant cells; settings: 100 nM, 1 μM, 10 μM
Description: FIG. 4J is a set of photomicrographs showing the results of a soft agar colony formation growth assay for A549 cells (parental) or ARAF knockout (KO), BRAF KO, or RAF1 (CRAF) KO cancer cells treated with the pan-RAF inhibitor AZ-628 at 100 nm, 1 μM, and 10 μM concentrations. Colonies were stained with MTT dye and imaged using a GelCount imager.
FIG. 6G is a set of photomicrographs showing the results of a soft agar colony formation growth assay for the indicated cancer cells treated with non-targeting shRNAs (shNT) or shRNA targeting ARAF (shARAF), BRAF (shBRAF), or RAF1 (CRAF) (shCRAF) and treated with the pan-RAF inhibitor AZ-628 at 100 nm, 1 μM, and 10 μM concentrations or a DMSO control.
It was hypothesized that the ratio of RAF1 (CRAF):ARAF versus RAF1 (CRAF):BRAF heterodimers may be important in the growth of RASK (KRAS) mutant tumors, and that this ratio may impact the efficacy of RAF kinase inhibition. To test this hypothesis, RASK (KRAS) mutant cells depleted of individual members of the RAF kinases (ARAF, BRAF or RAF1 (CRAF)) were treated with a pan-RAF dimer inhibitor (AZ-628). […] Taken together, RAF1 (CRAF) dimerization partners appear to dictate sensitivity to MAPK inhibition.

[2] = tested on: A549 RAF1 (CRAF) knockout (CRAF KO) cancer cells; test: Soft-agar colony formation assay in A549 RAF1 (CRAF) knockout cells with MEK or ERK inhibitor dose titration; settings: for cell survival of RAF1 (CRAF)-depleted cells: increasing the dose; for cell survival of RAF1 (CRAF) ablated RASK (KRAS) mutant cells: low-dose treatment
From the text: (§1) FIG. 11F is a set of photomicrographs showing the results of a soft-agar colony formation assay in A549 parental and RAF1 (CRAF) knockout (CRAF KO) cancer cells upon treatment with DMSO or a MEK inhibitor (GDC-0973) at the indicated dose titrations. The colonies were labeled with MTT reagent and imaged using a GelCount imager.
as §1, with “11G” for “11F”, “an ERK” for “a MEK”, “(GDC-0994)” for “(GDC-0973)”
Within the MAPK pathway, expression of BRAF^D631A mutation upon BRAF^wild-type loss induces cellular toxicity which impedes tumor development of RASK (KRAS) mutant lung tumors (Nieto et al., Nature, 548: 239-243, 2017; Yao et al., Nature, 548: 234-238, 2017). Importantly, pharmacological inhibition of ERK rescued tumor growth in this context (Nieto et al., Nature, 548: 239-243, 2017; Yao et al., Nature, 548: 234-238, 2017). […] Thus, oncogenic cellular stress induced by ARAF catalytic activity could be inhibited by low-dose MAPK inhibition, thereby promoting survival of RASK (KRAS) mutant cells.

MAPK signaling = test: Western blot analysis of MAPK pathway components in RASK (KRAS) mutant cancer cells; settings: 250 nM, 24 hours
[3] = tested on: CRAF:BRAF and CRAF:ARAF dimers; test: PIKES targeted analysis (PRM-MS) of immunoprecipitated FLAG-tagged CRAF wild-type; settings: 250 nM, 24 hours
From the text: Collected eluates were then combined with 100 fmol of QconCAT reagent and samples were processed similarly to the cell line analysis above for PRM analysis. For PRM analysis, RAW files were loaded onto Skyline (v19.1). A target peptide list was generated from the QconCAT peptides for both unlabeled and heavy-labeled peptides with transition setting filtered for precursor charges 2 and 3, ion charges 1 and 2, and y-ion types. Selected peaks from product ions were reviewed manually. Both MS1 and MS/MS filtering were set to Orbitrap mass analyzer with 60,000 resolving power. Signal was summed for the top three product ions and normalized to the heavy labeled QconCAT internal standard for peptide quantification.

[4] = tested on: ERK downstream substrates (MAPK target gene set); test: mRNA sequencing of MAPK target gene set in RASK (KRAS) mutant cells; settings: RNA-sequencing
Description: FIG. 2E is a graph showing the log 2 fold change in expression of a MAPK target gene set determined by mRNA sequencing in cancer cells treated with shARAF, shBRAF, or shCRAF. Cells were treated with 0.5 μg/mL doxycycline (DOX) for 72 hours. Cells were treated with a MEK inhibitor (GDC-0973) for 6 hours, 250 nM (n=3) or an ERK inhibitor (GDC-0994). Data are normalized to a non-targeting control (shNT) and DMSO (no DOX).
To confirm sustained MAPK activity in spite of RAF1 (CRAF) depletion, we performed a gene expression analysis for the MAPK downstream effectors DUSP6 and SPRTY upon RAF1 (CRAF) depletion in the examined RASK (KRAS) mutant cells lines. […] In order to delineate pathway alterations upon RAF1 (CRAF) depletion versus MAPK inhibition, RNA-sequencing analysis was performed. […] Thus, RAF kinases compensate to sustain MAPK signaling in comparison to MAPK inhibition.

RAF1:BRAF heterodimers = test: Immunoprecipitation of FLAG-tagged RAF1 (CRAF) in A549 RAF1 (CRAF) knockout cells; settings: 250 nM, 24 hours
From the text: Eluates were co-immunoprecipitated and blotted with the indicated antibodies.
To test whether RAF1 (CRAF) kinase activity is required for RASK (KRAS) mutant tumor cell growth, knockout cell lines of the three RAF isoforms were generated in a RASK (KRAS) mutant background. […] In the RAF1 (CRAF) knockout RASK (KRAS) mutant cells, stable expression of a panel of RAF1 (CRAF) mutants was established. […] Expression of RAF1 (CRAF) kinase-dead mutants including RAF1^D468N, RAF1^D486A, and RAF1^K375M(CRAF^D468N, CRAF^D486A, and CRAF^K375M) reduced pERK levels compared to cells expressing RAF1^wild-type (CRAF^wild-type) or RAF1^S259A (CRAF^S259A), a mutation which renders the RAF1 (CRAF) kinase constitutively active (FIG. 5C). RAF1 (CRAF) kinase-dead mutants either partially (RAF1^D468N (CRAF^D468N), RAF1^D486A(CRAF^D486A)) or fully (RAF1^K375M (CRAF^K375M)) rescued colony growth in RAF1 (CRAF)-deficient RASK (KRAS) mutant cells (FIGS. 4B and 5D). […] Functionally, the CRAF^K375M mutation completely abrogated MEK phosphorylation compared to CRAF^wild-type, but still rescued colony growth in RAF1-deficient RASK (KRAS) mutant cells (FIGS. 4C and 5C). […] Consistent with this, RAF1 (CRAF) kinase-dead mutants behaved like the RAF1 (CRAF) knockout, and were unable to rescue cell growth inhibition in the presence of MEK inhibitor compared to the cells expressing CRAF^wild-type (FIGS. 5E and 5F). […]

[5] = tested on: A549 cancer cells depleted of RAF1 (CRAF); test: Soft-agar colony formation assay in A549 cells treated with shCRAF and co-treated with cell death inhibitors; settings: single agent; ZVAD-FMK 20 μM, NEC1 30 μM, Bafilomycin 50 nM
Description: FIG. 12G is a set of photomicrographs showing the results of a soft-agar colony formation assay in A549 cancer cells upon treatment with shCRAF and co-treatment with the indicated inhibitors. […] Cells were co-treated with DMSO or inhibitors for cellular apoptosis (ZVAD-FMK, 20 μM), necroptosis (NEC1, 30 μM) or a combination of both (ZVAD-FMK, 10 μM; NEC1, 10 μM) and an autophagy inhibitor (Bafilomycin, 50 nM).
As ARAF catalytic function inhibits cell growth upon RAF1 (CRAF) loss, mechanisms by which ARAF limits growth of RASK (KRAS) mutant cells were investigated. Given that MAPK inhibition is associated with induction of cellular apoptosis (Yen et al., Cancer Cell, 34: 611-625, 2018), it was hypothesized that RAF1 (CRAF) ablation induces cell death, similar to MAPK inhibition in RASK (KRAS) mutants. […] Additionally, RAF1 (CRAF) ablation in a […] isogenic RASK (KRAS) mutant cell line (HCT116 p21^−/−) rescued cell growth inhibition mediated upon RAF1 (CRAF) loss (FIG. 12A). […] A chemical inhibitor approach was adopted to test whether cell growth inhibition upon RAF1 (CRAF) loss could be rescued by the treatment with apoptosis or autophagic inhibitors. […] Finally, a Gene Set Enrichment Analysis (GSEA) of targets involved in the apoptosis pathway was performed, but no significant enrichment of any apoptosis target gene set was observed upon acute depletion of ARAF, BRAF or RAF1 (CRAF) (FIG. 12I). […] Thus, RAF1 (CRAF) depletion promotes p21-mediated cell cycle arrest in RASK (KRAS) mutant cancer cells. Further, co-depletion of RAF1 (CRAF) and ARAF in RASK (KRAS) mutant cells abrogated the expression levels of p21 (FIG. 4E).

SMILES | cell survival of RAF1 (CRAF)-depleted cells [2] | cell survival of RAF1 (CRAF) ablated RASK (KRAS) mutant cells [2] | effect on expression of ERK downstream substrates (MAPK target gene set) [4] | rescue of cell growth in RAF1 (CRAF)-depleted RASK (KRAS) mutant cells [5] | further results
Cc1ccc(NC(=O)c2cccc(C(C)(C)C#N)c2)cc1Nc1ccc2ncn(C)c(=O)c2c1 [AZ-628] | – | – | – | – | sensitivity of colony growth to RAF dimer inhibition ([1]; ARAF ablation in RASK (KRAS) mutant cells): sensitized cells to RAF dimer inhibition; sensitivity of colony growth to RAF dimer inhibition ([1]; BRAF ablation in RASK (KRAS) mutant cells): less sensitive to RAF dimer inhibition
O=C(c1ccc(F)c(F)c1Nc1ccc(I)cc1F)N1CC(O)([C@@H]2CCCCN2)C1 [GDC-0973] | limited cell survival | promoted cell survival | induced suppression of ERK downstream substrates | – | effect on MAPK signaling (pMEK, pERK Western blot) (MAPK signaling): suppresses MAPK signaling; preferential RAF dimer association of CRAF wild-type (PIKES) [3]: promoted increased CRAF: BRAF dimers in comparison to CRAF: ARAF dimers; RAF heterodimers co-immunoprecipitated with FLAG-CRAF (RAF1:BRAF heterodimers): enriched for RAF1:BRAF heterodimers
Cn1nccc1Nc1nccc(-c2ccn([C@H](CO)c3ccc(Cl)c(F)c3)c(=O)c2)n1 [GDC-0994] | limited cell survival | promoted cell survival | induced suppression of ERK downstream substrates | – | –
CN1C(=O)C(Cc2c[nH]c3ccccc23)NC1=S (centres unmarked) [NEC1] | – | – | – | did not rescue cell growth | –
COC(=O)C[C@H](NC(=O)[C@H](C)NC(=O)[C@@H](NC(=O)OCc1ccccc1)C(C)C)C(=O)CF [Z-VAD-FMK] (Cbz-Val-Ala-Asp(OMe)-CH2F) | – | – | – | did not rescue cell growth | –
CO/C1=C\C(C)=C\[C@@H](C)[C@@H](O)[C@@H](C)C/C(C)=C/C=C/[C@H](OC)[C@@H]([C@@H](C)[C@@H](O)[C@H](C)[C@@]2(O)C[C@@H](O)[C@H](C)[C@@H](C(C)C)O2)OC1=O [bafilomycin] | – | – | – | did not rescue cell growth | –
